Source: US20020013372A1, “Pharmacophore models for the identification of the CYP2D6 inhibitory potency of selective serotonin reuptake inhibitors” (priority 2000, published 2002)
“And” between values parts separate entries of the source, which are not always exact repeats. Identical values can stand only once. Like-named read-outs stand apart in the source and are kept apart here.

Legend:
CYP2D6 [1] = biological target: T1, CYP2D6 (Homo sapiens, UniProt P10635); conditions: cited from earlier work
CYP2D6 [2] = biological target: T1, CYP2D6; assay: In vitro inhibition of CYP2D6, observed Ki (apparent) values from the literature
Source text: Many SSRI's are known to be inhibitors of cytochrome P450 (CYP), including CYP2D6 mediated metabolic pathways in vivo and in vitro (Belpair et al., Eur. J Clin. Pharmacol., 54: 261-264, 1998; Crewe et al., Br. J. Clin. Pharmacol., 34: 262-265, 1992; Otton et al, Clin. Pharmacol. Ther., 53: 401-409, 1993; Skjelbo et al., Br. J. Clin. Pharmacol., 34: 256-261, 1992; Stevens et al., J. Pharmacol. Exp. Ther., 266: 964-971, 1993). […] As CYP2D6 is of major concern because of its polymorphic nature (Brosen, Ther. Drug Monitoring, 18: 393-396, 1996), the ability to predict whether a drug will interact with this CYP represents a serious advance in the pharmaceutical arts. The potential for CYP2D6 inhibition in vivo can be predicted reliably using systems such as human liver microsomes and recombinant enzymes, along with a know substrate probe for CYP2D6. By generating a K1 (apparent) value and knowledge of the plasma concentration of the drug, it is possible to reliably predict the likelihood of drug-drug interactions in vivo (Ring et al., J. Pharmacol. Exp. Ther., 275: 1131-1135, 1995).
Present technologies have centered around the use of in vitro testing using human liver microsomes or recombinant CYPs and a known catalytic probe for CYP2D6 such as bufuralol. However, the possible volume of in vitro studies is often limited by equipment and materials cost, incubation volume and the rate of analytical determination. […] Generating this in vitro parameter appears to be dependent on the substrate probe used as well as other experimental variables.

[3] = read-out: observed K1 (apparent), training set of 14 amphetamine compounds, Wu et al., Biochem. Pharmacol. 53: 1605-1612 (1997)
[4] = read-out: Observed K1 (apparent), individual literature values, source per footnote b-l of Table I

T1 sequence (P10635 whole entry): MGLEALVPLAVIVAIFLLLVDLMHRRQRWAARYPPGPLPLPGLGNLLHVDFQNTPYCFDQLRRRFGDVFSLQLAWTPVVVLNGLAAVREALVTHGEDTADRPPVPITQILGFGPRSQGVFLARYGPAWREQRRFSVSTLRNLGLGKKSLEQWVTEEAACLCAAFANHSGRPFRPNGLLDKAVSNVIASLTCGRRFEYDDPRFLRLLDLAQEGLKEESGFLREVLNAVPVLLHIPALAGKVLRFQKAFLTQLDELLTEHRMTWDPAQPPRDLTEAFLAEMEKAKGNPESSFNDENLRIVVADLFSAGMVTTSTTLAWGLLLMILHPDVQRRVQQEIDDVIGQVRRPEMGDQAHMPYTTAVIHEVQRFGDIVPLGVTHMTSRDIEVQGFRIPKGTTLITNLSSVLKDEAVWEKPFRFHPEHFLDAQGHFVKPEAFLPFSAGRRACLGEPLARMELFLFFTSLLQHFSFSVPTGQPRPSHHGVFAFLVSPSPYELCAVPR

Row | Compound | Ki (CYP2D6 [1]; [3]) | Ki (CYP2D6 [2]) | Ki (CYP2D6 [1]; [4])
1 | CC(N)Cc1ccc(O)cc1 (single isomer, unassigned; (+)) [(+)-4-hydroxyamphetamine] | 195 µM |  | 
2 | CC(N)Cc1ccccc1 (single isomer, unassigned; (+)) [(+)-amphetamine] | 26.5 µM |  | 
3 | COc1cc(OC)c(CC(C)N)c(OC)c1 (stereo not drawn) [(d,l)-2,4,6-trimethoxyamphetamine] | 33 µM |  | 
4 | COc1cc2c(cc1CC(C)N)OCO2 (stereo not drawn) [(d,l)-2-methoxy-4,5-methylenedioxyamphetamine] | 0.17 µM |  | 
5 | COc1ccccc1CC(C)N (stereo not drawn) [(d,l)-2-methoxyamphetamine] | 11.5 µM |  | 
6 | COc1cc(CC(C)N)cc(OC)c1OC (stereo not drawn) [(d,l)-3,4,5-trimethoxyamphetamine] | 128 µM |  | 
7 | CC(N)Cc1ccc2c(c1)OCO2 (stereo not drawn) [(d,l)-3,4-methylenedioxyamphetamine] | 1.8 µM |  | 
8 | CNC(C)Cc1ccc2c(c1)OCO2 (stereo not drawn) [(d,l)-3,4-methylenedioxymethamphetamine] | 0.6 µM |  | 
9 | COc1cc(CC(C)N)cc2c1OCO2 (stereo not drawn) [(d,l)-3-methoxy-4,5-methylenedioxyamphetamine] | 2.2 µM |  | 
10 | COc1cccc(CC(C)N)c1 (stereo not drawn) [(d,l)-3-methoxyamphetamine] | 17.5 µM |  | 
11 | CNC(C)Cc1ccc(O)cc1 (stereo not drawn) [(d,l)-4-hydroxymethamphetamine] | 60 µM |  | 
12 | COc1ccc(CC(C)N)cc1 (stereo not drawn) [(d,l)-4-methoxyamphetamine] | 24 µM |  | 
13 | C[C@H](N)C(=O)c1ccccc1 [(d,l)-cathinone] | 340 µM |  | 
14 | CN(C)CCCC1(c2ccc(F)cc2)OCc2cc(C#N)ccc21 (stereo not drawn) [Citalopram] |  | 10.4 µM | 5.1 µM and 19 µM and 7 µM
15 | CNCCCC1(c2ccc(F)cc2)OCc2cc(C#N)ccc21 (stereo not drawn) [Desmethylcitalopram] |  | 3.65 µM | 1.3 µM and 6 µM
16 | N[C@H]1CC[C@@H](c2ccc(Cl)c(Cl)c2)c2ccccc21 [Desmethylsertraline] |  |  | 16 µM
17 | NCCC(Oc1ccc(C(F)(F)F)cc1)c1ccccc1 (stereo not drawn) [Norfluoxetine] |  | 1.07 µM | 
18 | CN[C@H]1CC[C@@H](c2ccc(Cl)c(Cl)c2)c2ccccc21 [Sertraline] |  | 6.52 µM | 
19 | (+)-methamphetamine | 25 µM |  | 
